Experiment: Organic impurities of TDF granules by HPLC (USP Pending Monograph procedure 1), before and after twin screw granulation
Type: physicochemical
Details: initial, no storage
Description: The test of organic impurities of Tenofovir Disoproxil Fumarate granules carried out by HPLC (Make-Agilent 1260 Infinity series).
The Tenofovir Disoproxil Fumarate granules sample was analyzed for organic impurities as per method based on Organic impurities, procedure 1 of USP Pending Monographs of Tenofovir Disoproxil Fumarate v.1 Authorized Sep. 1, 2011.
The standard, Tenofovir Disoproxil Fumarate (TDF) was prepared in solution A. concentration 0.502 μg/mL in solution. The sample i.e., TDF granules of the present invention was prepared in solution A, concentration 520.05 μg/mL.
The standard and sample solution was injected in chromatographic system and following impurity results are reported.
The test of organic impurities of Tenofovir Disoproxil Fumarate granules carried out by HPLC (Agilent 1260 Infinity series).
The Tenofovir Disoproxil Fumarate granules sample were analyzed for organic impurities as per Organic impurities, procedure 1 of USP Pending Monographs of Tenofovir Disoproxil Fumarate v.1 Authorized Sep. 1, 2011.
The standard [Tenofovir Disoproxil Fumarate (TDF)] was prepared in solution A. concentration 0.502 μg/mL in solution.
The sample [TDF granules of the present invention] was prepared in solution A, concentration 520.05 μg/mL.

- (R)-9-(2-Phosphonomethoxypropyl)adenine impurity: BDL
- Adenine impurity: Not detected
- Any individual unspecified impurity: 0.02%
- Tenofovir disoproxil carbamate impurity: Not detected
- Tenofovir disoproxil dimer impurity: 0.04%
- Tenofovir disoproxil ethyl ester impurity: 0.03%
- Tenofovir isopropyl isoproxil impurity: 0.17%
- Tenofovir isoproxil monoester impurity: 0.48%
- Total impurities: 0.84%
- Adenine impurity (listed as Unprocessed (API)): BDL
- Any individual unspecified impurity (listed as Unprocessed (API)): 0.015%
- Tenofovir isopropyl isoproxil impurity (listed as Unprocessed (API)): 0.118%
- Tenofovir isoproxil monoester impurity (listed as Unprocessed (API)): 0.321%
- Total impurities (listed as Unprocessed (API)): 0.490%
Structure (SMILES): CC(C)OC(=O)OCOP(=O)(CO[C@H](C)Cn1cnc2c(N)ncnc21)OCOC(=O)OC(C)C.O=C(O)/C=C/C(=O)O [Unprocessed TDF API, 9-[(R)-2-[[bis[[(isopropoxycarbonyl)oxy]-methoxy]phosphinyl]methoxy]propyl]adenine fumarate (1:1)]

Reference: patent US10561614B2, “Tenofovir granules” (STEERLIFE INDIA PRIVATE LIMITED, priority 2017, dated 2020)
